The results in this text go back to PubChem BioAssay (NCI).

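A five-concentration, 48-hour dose response in 96-well plates underlies each endpoint, interpolated linearly between surrounding concentrations. TGI: total growth inhibition.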

The subject of the assay is P388/ADR leukemia. Nature of the assay: NCI tumour cell line growth inhibition, 48 h.

In the case of `COc1cccc2c1C(=O)c1c(O)c3c(c(O)c1C2=O)C[C@@](O)(C(C)=O)C[C@@H]3OC1CC(O)C(O)C(C)O1` (stereo partly specified), the TGI is 1.64 µM.
